Measurements published in ChEMBL document CHEMBL1201862, “PubChem BioAssay data set” (2004).
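Values below derive from 48-hour exposures of cells grown in 96-well plates, with endpoints linearly interpolated between the two concentrations bracketing the appropriate inhibition level. GI50 = concentration required for 50% inhibition of growth.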 The source made the active and inactive calls. No stated cut-off is given here; in the data, active = GI50 up to about 1.1 µM and inactive = higher.

Assays:
Test in all cases: DTP human tumour cell line panel, 48 h
EKVX = system: EKVX
ACHN = system: ACHN
SF-268 = system: SF-268
OVCAR-5 = system: OVCAR-5
SN12C = system: SN12C
SK-MEL-28 = system: SK-MEL-28
T47D = system: T47D
KM12 = system: KM12
UO-31 = system: UO-31
NCI/ADR-RES = system: NCI/ADR-RES
HOP-62 = system: HOP-62
LOX IMVI = system: LOX IMVI
HCT-15 = system: HCT-15
MDA-N = system: MDA-N
UACC-257 = system: UACC-257
SK-MEL-5 = system: SK-MEL-5
HOP-92 = system: HOP-92
NCI-H460 = system: NCI-H460
M14 = system: M14
OVCAR-8 = system: OVCAR-8

SMILES	GI50 (EKVX)	GI50 (ACHN)	GI50 (SF-268)	GI50 (OVCAR-5)	GI50 (SN12C)	GI50 (SK-MEL-28)	GI50 (T47D)	GI50 (KM12)	GI50 (UO-31)	GI50 (NCI/ADR-RES)	GI50 (HOP-62)	GI50 (LOX IMVI)	GI50 (HCT-15) [µM]	GI50 (MDA-N)	GI50 (UACC-257)	GI50 (SK-MEL-5)	GI50 (HOP-92)	GI50 (NCI-H460)	GI50 (M14)	GI50 (OVCAR-8)
O=C1NC(=O)/C(=C/c2ccc(S(=O)(=O)N/N=C\C(O)C(O)C(O)C(O)CO)cc2)N1 (stereo not given)	> 100 µM (inactive)	> 100 µM (inactive)	> 100 µM (inactive)	> 100 µM (inactive)	> 100 µM (inactive)	> 100 µM (inactive)	> 100 µM (inactive)	> 100 µM (inactive)	> 100 µM (inactive)	> 100 µM (inactive)	> 100 µM (inactive)	> 100 µM (inactive)	> 100	> 100 µM (inactive)	> 100 µM (inactive)	> 100 µM (inactive)	> 100 µM (inactive)	> 100 µM (inactive)	> 100 µM (inactive)	> 100 µM (inactive)
Nc1ccc(S(=O)(=O)Nc2nc3ccccc3nc2Nc2ccc(S(N)(=O)=O)cc2)cc1	75.7 µM (inactive)	42.7 µM (inactive)	17.5 µM (inactive)	> 100 µM (inactive)	34.6 µM (inactive)	30.2 µM (inactive)	40.7 µM (inactive)	33 µM (inactive)	18.2 µM (inactive)	45.9 µM (inactive)	29.2 µM (inactive)	17.9 µM (inactive)	37.7	56.6 µM (inactive)	46 µM (inactive)	49.8 µM (inactive)	17.6 µM (inactive)	> 100 µM (inactive)	36.3 µM (inactive)	45.4 µM (inactive)
CN(C(=O)C1=CCCCCC1)c1ccccc1I	28.4 µM (inactive)	59.6 µM (inactive)	24.3 µM (inactive)	> 100 µM (inactive)	49.1 µM (inactive)	37.5 µM (inactive)	23.7 µM (inactive)	19.1 µM (inactive)	41.4 µM (inactive)	25.6 µM (inactive)	63.4 µM (inactive)	28.9 µM (inactive)	39.6	35.5 µM (inactive)	44.6 µM (inactive)	23.6 µM (inactive)	> 10 µM (inactive)	32 µM (inactive)	31.6 µM (inactive)	38.5 µM (inactive)
Cn1c(=O)c2c(nc(C(=N)SCC(=O)O)n2C)n(C)c1=O	29.1 µM (inactive)	41 µM (inactive)	39.3 µM (inactive)	47.5 µM (inactive)	45.9 µM (inactive)	37.7 µM (inactive)	33.2 µM (inactive)	34.5 µM (inactive)	41.8 µM (inactive)	33.3 µM (inactive)	56.5 µM (inactive)	48.1 µM (inactive)	31.8	36.2 µM (inactive)	29.1 µM (inactive)	16 µM (inactive)	36.6 µM (inactive)	29.6 µM (inactive)	43.5 µM (inactive)	42.7 µM (inactive)
CCCCCCCCCCCCCCCC(=O)N(CCCCCCCCCCC(=O)O)CC(O)C(O)C(OC1OC(CO)C(O)C(O)C1O)C(O)CO (stereo not given)	37.6 µM (inactive)	> 100 µM (inactive)	21.3 µM (inactive)	> 100 µM (inactive)	20.5 µM (inactive)	18.5 µM (inactive)	40.7 µM (inactive)	18.8 µM (inactive)	35.1 µM (inactive)	25.7 µM (inactive)	23.5 µM (inactive)	19.5 µM (inactive)	41.2	34.7 µM (inactive)	22 µM (inactive)	33.5 µM (inactive)	41.3 µM (inactive)	> 100 µM (inactive)	20.7 µM (inactive)	27.1 µM (inactive)
O=C1OC[C@@H]2Cc3c([nH]c4ccccc34)[C@@H](c3ccc(O)cc3)N12	36.3 µM (inactive)	23.7 µM (inactive)	42.6 µM (inactive)	39.4 µM (inactive)	41.1 µM (inactive)	54.6 µM (inactive)	51.5 µM (inactive)	22.8 µM (inactive)	30.6 µM (inactive)	34.7 µM (inactive)	35.6 µM (inactive)	21 µM (inactive)	37.8	33 µM (inactive)	29.9 µM (inactive)	17.2 µM (inactive)	96.8 µM (inactive)	28.7 µM (inactive)	23.1 µM (inactive)	30.1 µM (inactive)
Cc1ccc(Nc2nnc(-c3ccc4c(c3)OCO4)o2)c(C)c1	82 µM (inactive)	> 100 µM (inactive)	64.4 µM (inactive)	> 100 µM (inactive)	> 100 µM (inactive)	> 100 µM (inactive)	36.2 µM (inactive)	> 100 µM (inactive)	> 100 µM (inactive)	> 100 µM (inactive)	> 100 µM (inactive)	> 100 µM (inactive)	> 100	> 100 µM (inactive)	> 100 µM (inactive)	> 100 µM (inactive)	41.9 µM (inactive)	> 100 µM (inactive)	> 100 µM (inactive)	55.1 µM (inactive)
CCOc1ccc(NC(=O)C(=O)C2C(=O)Nc3ccccc3[S+]2[O-])cc1 (stereo not given)	85.9 µM (inactive)	> 100 µM (inactive)	> 100 µM (inactive)	> 100 µM (inactive)	> 100 µM (inactive)	> 100 µM (inactive)	> 100 µM (inactive)	> 100 µM (inactive)	> 100 µM (inactive)	> 100 µM (inactive)	> 100 µM (inactive)	> 100 µM (inactive)	> 100	> 100 µM (inactive)	> 100 µM (inactive)	> 100 µM (inactive)	> 100 µM (inactive)	> 100 µM (inactive)	> 100 µM (inactive)	> 100 µM (inactive)
O=C(O)CCCc1ccc2ccc3ccccc3c2c1	> 100 µM (inactive)	46.2 µM (inactive)	66.2 µM (inactive)	73.5 µM (inactive)	> 100 µM (inactive)	81.8 µM (inactive)	52.8 µM (inactive)	35.6 µM (inactive)	88.1 µM (inactive)	84.3 µM (inactive)	34.8 µM (inactive)	96.4 µM (inactive)	51.1	> 100 µM (inactive)	56.2 µM (inactive)	55.2 µM (inactive)	72.6 µM (inactive)	58.3 µM (inactive)	> 100 µM (inactive)	71.9 µM (inactive)
CC[C@@H]1CN(C)[C@H]2Cc3c([nH]c4ccccc34)C(=O)C[C@H]1C2C(=O)OC (stereo not given in full)	> 100 µM (inactive)	> 100 µM (inactive)	> 100 µM (inactive)	> 100 µM (inactive)	> 100 µM (inactive)	> 100 µM (inactive)	> 100 µM (inactive)	> 100 µM (inactive)	> 100 µM (inactive)	> 95.7 µM (inactive)	> 72.8 µM (inactive)	> 100 µM (inactive)	> 100	> 100 µM (inactive)	> 100 µM (inactive)	> 100 µM (inactive)	> 100 µM (inactive)	> 100 µM (inactive)	> 100 µM (inactive)	> 100 µM (inactive)
O=c1c2ccccc2[nH]c(=S)n1-c1ccc(/N=N/c2cccc3cc(O)ccc23)cc1	> 100 µM (inactive)	> 100 µM (inactive)	> 100 µM (inactive)	74.1 µM (inactive)	> 100 µM (inactive)	> 100 µM (inactive)	> 100 µM (inactive)	> 100 µM (inactive)	> 100 µM (inactive)	> 100 µM (inactive)	> 100 µM (inactive)	43.5 µM (inactive)	36.3	> 100 µM (inactive)	> 100 µM (inactive)	31.8 µM (inactive)	> 100 µM (inactive)	> 100 µM (inactive)	> 100 µM (inactive)	> 100 µM (inactive)
O=C1c2n[nH]nc2C(=O)c2n[nH]nc21	> 100 µM (inactive)	> 100 µM (inactive)	> 100 µM (inactive)	> 100 µM (inactive)	> 100 µM (inactive)	> 100 µM (inactive)	> 100 µM (inactive)	> 100 µM (inactive)	> 100 µM (inactive)	> 100 µM (inactive)	> 100 µM (inactive)	> 100 µM (inactive)	> 100	> 100 µM (inactive)	> 100 µM (inactive)	> 100 µM (inactive)	> 100 µM (inactive)	> 100 µM (inactive)	> 100 µM (inactive)	> 100 µM (inactive)
CC(=O)[O-].[Zn+].c1ccc(/C(=N\Nc2ccccn2)c2ccccn2)cc1	0.00629 µM (active)	0.0653 µM (active)	0.277 µM (active)	0.025 µM (active)	0.0424 µM (active)	0.255 µM (active)	0.00206 µM (active)	0.356 µM (active)	0.253 µM (active)	0.0303 µM (active)	0.269 µM (active)	0.264 µM (active)	0.0137	0.426 µM (active)	0.08 µM (active)	0.0684 µM (active)	0.381 µM (active)	0.31 µM (active)	0.0813 µM (active)	0.0519 µM (active)
CN(CCCNC(=O)c1n[nH]c2c1ccc1ccccc12)CCCNC(=O)c1n[nH]c2c1ccc1ccccc12	21.4 µM (inactive)	17.6 µM (inactive)	14.7 µM (inactive)	20.4 µM (inactive)	16.3 µM (inactive)	2.09 µM (inactive)	16 µM (inactive)	16.9 µM (inactive)	14.6 µM (inactive)	> 100 µM (inactive)	16.8 µM (inactive)	12.5 µM (inactive)	17	2.14 µM (inactive)	4.24 µM (inactive)	4.68 µM (inactive)	14.6 µM (inactive)	18 µM (inactive)	4.3 µM (inactive)	16.4 µM (inactive)
